Source: patent US5389687A, “Ring-substituted 2-amino-1,2,3,4-tetra-hydronaphthalenes” (Eli Lilly and Company, priority 1991, dated 1995)
Values joined by “and” are separate entries in the source; they are usually repeats but may differ in a detail not shown here. Equal values may be shown once. Read-outs that look alike come from different tables or passages of the source.

How the values were obtained:
[1] = molecular target: T1, 5HT1a receptors (Rattus norvegicus, UniProt P19327); test: Binding at 5HT1a receptors in vitro (inhibition of 3H-8-OH-DPAT binding to synaptosomal membranes from cerebral cortex); set-up: species or system Male Sprague-Dawley rats; conditions: 0.4 nM 3H-8-OH-DPAT, 37° C., 10 min, pH 7.4, several values in a cell are separate determinations
T1 construct: synaptosomal membranes isolated from cerebral cortex; from tissue; host or cells: rat cerebral cortex, crude synaptosomal membranes (Male Sprague-Dawley rats from Harlan Industries)
T1 sequence (P19327 1-422): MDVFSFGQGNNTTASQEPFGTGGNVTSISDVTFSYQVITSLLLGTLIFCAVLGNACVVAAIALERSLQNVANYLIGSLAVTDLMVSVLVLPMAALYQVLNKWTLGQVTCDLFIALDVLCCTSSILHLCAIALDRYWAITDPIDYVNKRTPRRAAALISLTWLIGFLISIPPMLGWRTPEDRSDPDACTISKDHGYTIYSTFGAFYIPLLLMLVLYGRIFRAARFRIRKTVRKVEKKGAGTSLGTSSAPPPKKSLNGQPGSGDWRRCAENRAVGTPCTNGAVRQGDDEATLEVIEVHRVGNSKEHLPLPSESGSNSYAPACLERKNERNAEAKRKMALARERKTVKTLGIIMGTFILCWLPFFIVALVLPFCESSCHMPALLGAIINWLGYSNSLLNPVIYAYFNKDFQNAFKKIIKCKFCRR
Experimental: This general procedure is set forth in Wong et al., J. Neural Transm. 71:207-218 (1988).
Male Sprague-Dawley rats (110-150 g) from Harlan Industries (Cumberland, Ind.) were fed a Purina Chow ad libitum for at least 3 days before being used in the studies. Rats were killed by decapitation. The brains were rapidly removed, and the cerebral cortices were dissected out at 4° C.
Brain tissues were homogenized in 0.32 M sucrose. After centrifugation at 1000×g for 10 min and then at 17000×g for 20 min, a crude synaptosomal fraction was sedimented. The pellet was suspended in 100 vol of 50 mM Tris-HCl, pH 7.4, incubated at 37° C. for 10 min, and centrifuged at 50000×g for 10 min. The process was repeated and the final pellet was suspended in ice-chilled 50 mM Tris-HCl, pH 7.4. By the radio-ligand binding method, sites specifically labeled by tritiated 8-hydroxy-2-dipropylamino-1,2,3,4-tetrahydronaphthalene ([…]) have been identified as 5HT-1a receptors.
Binding of (^3 H-8-OH-DPAT) was performed according to the previously described method [Wong et al., J. Neural Transm. 64:251-269 (1985)]. Briefly, synaptosomal membranes isolated from cerebral cortex were incubated at 37° C. for 10 min. in 2 ml of 50 mM Tris-HCl, pH 7.4; 10 μM pargyline; 0.6 mM ascorbic acid; and 0.4 nM […]. Binding was terminated by filtering samples under reduced pressure through glass fiber (GFB) filters. The filters were washed twice with 5 ml of ice cold buffer and placed in scintillation vials with 10 ml of PCS (Amersham/Searle) scintillation fluid. Radioactivity was measured with a liquid scintillation spectrometer. Unlabeled 8-OH-DPAT at 10 μM was also included in separate samples to establish non-specific binding. Specific binding of ^3 H-8-OH-DPAT is defined as the difference of radioactivity bound in the absence and in the presence of 10 μM unlabeled 8-OH-DPAT.

[2] = tested on: conscious spontaneous hypertensive rats (SHR); test: Effect on blood pressure after i.v. administration to conscious SHR; format: in vivo; conditions: for ED25: Rattus norvegicus, iv, read-out: Blood Pressure ED25 (i.v. dose required to decrease pressure 25%)
Experimental: (§1) The compounds of this invention are also effective in reducing blood pressure. The blood pressure lowering effect of the compounds of this invention was determined in conscious spontaneous hypertensive rats (SHR; 325-425 g). The rats were anesthetized with halothane (2% in nitrous oxide and oxygen) and were implanted with femoral arterial and venous catheters. The tips of arterial and venous catheters-were positioned in the abdominal aorta below the renal arteries and lower abdominal vena cava, respectively. The catheters were routed subcutaneously to an exit point at the base of the skull and then through a small leather harness fastened around the forequarters of each animal. The animals were allowed a 3- to 4-day recovery period after surgery. On the day before an experiment, each rat was conditioned to the experimental surroundings for 6 hours. On the day of the experiment, the harness on the back of each animal was connected to a spring tether through which arterial and venous extension tubing was routed. The other end of the tubing was connected to a water tight swivel. This system permitted direct recording of blood pressure in conscious free moving animals. Mean arterial blood pressure was measured via a Statham strain gauge transducer (P23DB, Statham Instruments, Oxnard, Calif.) and recorded on a multichannel oscillograph (Beckman Model R611, Beckman Instruments, Palo Alto, Calif.). A minimum 30-minute equilibration period was observed prior to the experimental protocol during which time the animals preened and blood pressure was quite labile. Afterward, the animals appeared to sleep and pressure was stable. Following a control blood pressure measurement, rats were dosed with the compound or vehicle i.v., and pressure was monitored at various time intervals thereafter.
(§2) ^1 Standard protocol recorded the blood pressure and heart rate
(§3) responses after 0.3, 1.0 and 3.0 mg/kg i.v. Dose response curves were
(§4) plotted using the % change in pressure from pretreatment control values a
(§5) 15 and 30 minutes after treatment.
(§6) Corr = correlation coefficient for the linear relationship between the lo
(§7) dose(s) and % change (y) in pressure. Values of 1.0 = perfect correlation
(§8) Pos = Positive slope of dose response
ED25 = i.v. dose required to decrease pressure 25%

[3] = tested on: conscious spontaneous hypertensive rats (SHR); test: Effect on heart rate after i.v. administration to conscious SHR; format: in vivo; conditions: for ED15: Rattus norvegicus, iv, read-out: Heart Rate ED15
Experimental: as §1, §2, §3, §4, §5, §6, §7, §8
HR Index = ED15 for Heart Rate divided by ED25 for Blood

[4] = 0.5 h, 30 min. after treatment, i.v., conscious SHR
[5] = 30 min. after treatment, i.v., conscious SHR
[6] = 0.25 h, 15 min. after treatment, i.v., conscious SHR
[7] = 15 min. after treatment, i.v., conscious SHR

| SMILES | IC50 ([1]; IC50 5HT1a) | ED25 [2, 4] | HR Index (ED15 for Heart Rate divided by ED25 for Blood Pressure) [3, 5] | ED15 [3, 6] | ED15 [3, 4] | ED25 [2, 6] | HR Index (ED15 for Heart Rate divided by ED25 for Blood Pressure) [3, 7] | IC50 ([1]; read-out: IC50 5HT1a) | other results |
| --- | --- | --- | --- | --- | --- | --- | --- | --- | --- |
| CCCN(CCC)C1CCc2cccc(C(=O)OC)c2C1 (centres unmarked) [Example 7, 2-Di-n-propylamino-8-methoxycarbonyl-1,2,3,4-tetrahydronaphthalene] | 1.4 nM and 1.8 nM and 2.4 nM | 5.3 mg/kg | 0.21 | 1.4 mg/kg | 1.1 mg/kg | – | – | – | – |
| CCCN(CCC)C1CCc2cccc(Cl)c2C1 (centres unmarked) [Example 1, 2-Di-n-propylamino-8-chloro-1,2,3,4-tetrahydronaphthalene] | 18 nM | 13 mg/kg | 0.22 | 27.8 mg/kg | 2.8 mg/kg | 3.1 mg/kg | 8.96 | – | – |
| CCCN(CCC)C1CCc2cccc(C=O)c2C1 (centres unmarked) [Example 17, 2-Di-n-propylamino-8-formyl-1,2,3,4-tetrahydronaphthalene] | 17.2 nM | – | – | – | – | – | – | – | – |
| CCCN(CCC)C1CCc2cccc(Br)c2C1 (centres unmarked) [Example 5, 2-Di-n-propylamino-8-bromo-1,2,3,4-tetrahydronaphthalene] | 23 nM and 15.1 nM | 5.9 mg/kg | 0.27 | 1.6 mg/kg | 1.6 mg/kg | 6.1 mg/kg | 0.06 | – | – |
| CCCN(C)C1CCc2cccc(Cl)c2C1 (centres unmarked) [Example 15, 2-Methylpropylamino-8-chloro-1,2,3,4-tetrahydronaphthalene] | – | 3.8 mg/kg | – | – | – | 1.6 mg/kg | – | 500 nM | – |
| CC(C)N(C)C1CCc2cccc(Cl)c2C1 (centres unmarked) [Example 14, 2-Methylisopropylamino-8-chloro-1,2,3,4-tetrahydronaphthalene] | – | – | – | 3.8 mg/kg | – | 2.9 mg/kg | 1.31 | – | – |
| CCCN(CCC)C1CCc2cccc(F)c2C1 (centres unmarked) [Example 6, 2-Di-n-propylamino-8-fluoro-1,2,3,4-tetrahydronaphthalene] | – | – | – | – | 8 mg/kg | 4.5 mg/kg | – | 280 nM | Heart Rate ED15 [3, 7]: Pos |
| CCN(CC)C1CCc2cccc(Cl)c2C1 (centres unmarked) [Example 2, 2-Diethylamino-8-chloro-1,2,3,4-tetrahydronaphthalene] | 48 nM and 38.2 nM | – | 1.00 | – | – | – | – | – | ED25 ([2]; 0.5 h): 1.5 mg/kg; ED15 ([3]; 0.5 h): 1.5 mg/kg |
| CNC1CCc2cccc(Cl)c2C1 (centres unmarked) [Example 12, 2-Methylamino-8-chloro-1,2,3,4-tetrahydronaphthalene] | – | 1.8 mg/kg | 0.83 | – | 1.5 mg/kg | 1.4 mg/kg | – | – | – |
| C=CCN(CC=C)C1CCc2cccc(Cl)c2C1 (centres unmarked) [Example 3, 2-Diallylamino-8-chloro-1,2,3,4-tetrahydronaphthalene] | 45.2 nM | – | – | – | – | – | – | – | – |
| CCCNC1CCc2cccc(Cl)c2C1 (centres unmarked) [Example 10, 2-n-Propylamino-8-chloro-1,2,3,4-tetrahydronaphthalene] | – | 4.5 mg/kg | 0.47 | 1.2 mg/kg | 2.1 mg/kg | 2.5 mg/kg | 0.48 | 200 nM | – |
| CCCN(CCC)C1CCc2cccc(CO)c2C1 (centres unmarked) [Example 21, 2-Di-n-propylamino-8-hydroxymethyl-1,2,3,4-tetrahydronaphthalene] | 55.5 nM | – | – | – | – | 4.2 mg/kg | – | – | convulsion ([2]; 3.0 mg/kg i.v., conscious SHR): caused convulsion |
| CCCCN(CCCC)C1CCc2cccc(Cl)c2C1 (centres unmarked) [Example 4, 2-Di-n-butylamino-8-chloro-1,2,3,4-tetrahydronaphthalene] | – | – | – | – | – | – | – | 780 nM and 318 nM | – |
| CCN(C)C1CCc2cccc(C(N)=O)c2C1 (centres unmarked) [Example 20, 2-Methylethylamino-8-carboxamido-1,2,3,4-tetrahydronaphthalene] | – | – | – | – | – | – | – | 400 nM | – |
| CN(C)C1CCc2cccc(Cl)c2C1 (centres unmarked) [Example 11, 2-Dimethylamino-8-chloro-1,2,3,4-tetrahydronaphthalene] | – | 1.8 mg/kg | 3.00 | 1.1 mg/kg | 5.4 mg/kg | 1.1 mg/kg | 1.0 | 580 nM and 272 nM | – |
| CCN(C)C1CCc2cccc(Cl)c2C1 (centres unmarked) [Example 13, 2-Methylethylamino-8-chloro-1,2,3,4-tetrahydronaphthalene] | – | 0.9 mg/kg | 0.70 | 0.48 mg/kg | 0.63 mg/kg | 0.7 mg/kg | 0.69 | 120 nM | – |
| CN(C)C1CCc2cccc(C(N)=O)c2C1 (centres unmarked) [Example 19, 2-Dimethylamino-8-carboxamido-1,2,3,4-tetrahydronaphthalene] | – | 1030 mg/kg | – | – | – | 10.9 mg/kg | – | – | Heart Rate ED15 [3, 7]: Pos; Heart Rate ED15 [3, 5]: Pos |
| CCCNC1CCc2cccc(NC(C)=O)c2C1 (centres unmarked) [Example 18, 2-Propylamino-8-acetamido-1,2,3,4-tetrahydronaphthalene] | – | – | – | 3.8 mg/kg | 1.2 mg/kg | – | – | – | – |
